Measurements reported in PMC12801976, “Enzyme-Powered CO2 Utilization: A Bifunctional Immobilized Biocatalyst for Intensified CCU of Industrial Feedstocks to High-Value Chemicals” (ACS Sustainable Chemistry & Engineering, 2025).

Biological target: T1, glycerol dehydrogenase (GlyDH)
T1 construct: His-tagged, produced and purified in house (details only in SI); multimeric zinc metalloenzyme; free enzyme
Assay: NADH formation at […] nm, DHA dose series
Format: biochemical
Details: free enzyme; product inhibition; standard assay 100 mM glycerol, 2.5 mM NAD+, 100 mM phosphate pH 7.0, 30 °C

O=C(CO)CO [DHA, dihydroxyacetone]
IC50: 330 µM
